Experimental findings from patent publication US20250129092A1, “COMPOUNDS USEFUL IN MODULATION OF AHR SIGNALLING” (JAGUAHR THERAPEUTICS PTE LTD, priority 2021, published 2025) are described below.

For test [1], the target named is T1, AhR (Homo sapiens, UniProt P35869).
T1 sequence (P35869 11-848): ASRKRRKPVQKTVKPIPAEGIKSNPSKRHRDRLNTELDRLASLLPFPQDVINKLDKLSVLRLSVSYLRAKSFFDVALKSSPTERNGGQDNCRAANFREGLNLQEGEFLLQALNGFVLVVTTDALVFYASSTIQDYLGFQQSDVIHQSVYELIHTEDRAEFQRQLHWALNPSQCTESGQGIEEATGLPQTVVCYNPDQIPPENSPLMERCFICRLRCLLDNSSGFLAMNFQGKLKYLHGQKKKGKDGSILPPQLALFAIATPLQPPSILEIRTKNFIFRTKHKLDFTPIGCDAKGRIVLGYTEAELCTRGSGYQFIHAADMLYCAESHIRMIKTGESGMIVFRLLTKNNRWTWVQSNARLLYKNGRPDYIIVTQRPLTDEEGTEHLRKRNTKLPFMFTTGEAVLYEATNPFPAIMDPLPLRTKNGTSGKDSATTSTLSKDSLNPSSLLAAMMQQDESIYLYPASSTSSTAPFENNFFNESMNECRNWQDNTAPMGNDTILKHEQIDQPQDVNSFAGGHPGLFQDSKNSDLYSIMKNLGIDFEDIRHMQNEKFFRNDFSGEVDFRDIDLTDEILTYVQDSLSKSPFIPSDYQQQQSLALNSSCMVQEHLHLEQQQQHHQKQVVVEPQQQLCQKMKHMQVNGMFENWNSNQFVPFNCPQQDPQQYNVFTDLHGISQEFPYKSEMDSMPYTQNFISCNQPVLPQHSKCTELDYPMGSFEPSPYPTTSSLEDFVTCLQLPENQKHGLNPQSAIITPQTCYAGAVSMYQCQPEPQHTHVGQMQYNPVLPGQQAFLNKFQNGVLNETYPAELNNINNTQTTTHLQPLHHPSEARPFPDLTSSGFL
The test can be described thus: AhR antagonism in human PBMCs - inhibition of IL-22 release. In kind it is cell-based. More on the design: endogenous in cells. The conditions noted are these: human PBMCs activated with CD3/CD28 agonist mixture, 72 hrs, IL-22 ELISA; average; read-out: hPBMC Inhibition of CD3/CD28 induced IL-22 release: av. pIC50 (converted). From the text:
In Vitro Assay 3: AhR Antagonism in Human Peripheral Blood Mononuclear Cells (PBMCs)-Inhibition of Interleukin-22 (IL-22) Release.
PBMCs were isolated from human peripheral blood using Lymphoprep™ and diluted to 1×10^6 cells per ml in RPMI media containing […] foetal bovine serum, 1% penicillin-streptomycin and 1% non essential amino acids. PBMCs were subsequently activated with 1p1 per 100,000 cells of a CD3/CD28 agonist mixture (human T Cell TransAct™ (Miltenyi Biotec)) and then plated at 100,000 cells per well in a round bottom 96 well tissue culture plate. One hour after stimulation seven concentrations of each test compound or vehicle (final [DMSO] 0.2%) were added. The plates were then placed in an incubator at 37° C., ≥85% humidity, 5% […] for 72 hrs before the media was removed and stored at −20° C. until cytokine analysis. IL-22 was measured using human IL-22 DuoSet ELISA (R&D systems) according to the manufacturer's instructions.
In general terms: In an ELISA, binding on a coated surface is turned into a signal by an enzyme label.

Test [2] concerns the target T1, AhR. The test can be described thus: AhR antagonism in U937 cells (Promega P450-Glo assay). In kind it is cell-based. More on the design: endogenous in cells; host or cells: U937 cells. The conditions noted are these: CYP1A1 activity readout (Luciferin-CEE), head names VAF347, average, read-out: U937 Antagonist pIC50-VAF347: av. pIC50 (converted). How it is done: In Vitro Assay 1: AhR Antagonism in U937 Cells (Promega P450-Glo™ Assay)
AhR antagonism was assessed in LJ937 cells (myeloid lineage cell line derived from a human histiocytic lymphoma). Ligand binds the AhR in the cytoplasm, and the AhR-ligand complex translocates to the nucleus and forms a heterodimer with AhR nuclear translocator (Arnt). This complex binds the xenobiotic response element (XRE) in the 5′ upstream region of the CYP1A1 promoter, enhancing CYP1A1 expression. CYP1A1 activity is subsequently determined by assessing the conversion of Luciferin-CEE to luciferin, which in turn reacts with luciferase to produce light. The amount of light produced is directly proportional to cytochrome P450 activity. U937 cells in Ultraculture serum free media (Lonza) were plated at 100,000 cells per well in a round bottom 96 well tissue culture plate. […] The plates were then placed in an incubator at 37° C., ≥85% humidity, 5% CO2 for 24 hrs. After aspiration of the supernatant the CYP1A1 substrate Luciferin-CEE ([Final] 83 μM) was added and incubated for 3 hrs before the reaction was stopped by adding luciferin detection reagent and luminescence was read after 20 minutes.

For the molecule `O=c1[nH]cccc1-c1nc(NCCc2c[nH]c3ccccc23)c2c(n1)N[C@H](CO)CO2` [Example 27, (R)-3-(4-((2-(1H-indol-3-yl)ethyl)amino)-7-(hydroxymethyl)-7,8-dihydro-6H-pyrimido[5,4-b][1,4]oxazin-2-yl)pyridin-2 (1H)-one], the IC50 on AhR [1] was 2.14 nM; on AhR [2] it was 4.9 nM.
For `COC[C@H]1COc2c(NCCc3c[nH]c4ccccc34)nc(-c3cncc(F)c3)nc2N1` [Example 28, (7S)-2-(5-fluoro-3-pyridyl)-N-[2-(1H-indol-3-yl)ethyl]-7-(methoxymethyl)-7,8-dihydro-6H-pyrimido[5,4-b][1,4]oxazin-4-amine], the IC50 on AhR [1] was 0.617 nM; on AhR [2], 0.513 nM.
The corresponding values for `C[C@H]1CNc2nc(-c3cncc(F)c3)nc(NCCc3c[nH]c4ccccc34)c2O1` [Example 29, (6S)-2-(5-fluoro-3-pyridyl)-N-[2-(1H-indol-3-yl)ethyl]-6-methyl-7,8-dihydro-6H-pyrimido[5,4-b][1,4]oxazin-4-amine] are 3.02 nM and 2.19 nM.
In the case of `C[C@@H]1CNc2nc(-c3cncc(F)c3)nc(NCCc3c[nH]c4ccccc34)c2O1` [Example 30, (6R)-2-(5-fluoro-3-pyridyl)-N-[2-(1H-indol-3-yl)ethyl]-6-methyl-7,8-dihydro-6H-pyrimido[5,4-b][1,4]oxazin-4-amine], the IC50 at AhR [1] is 3.98 nM; at AhR [2] it was 5.5 nM.
The corresponding values for `Fc1cncc(-c2nc(NCCc3c[nH]c4ccccc34)c3c(n2)N[C@@H](C(F)(F)F)CO3)c1` [Example 32, (7R)-2-(5-fluoro-3-pyridyl)-N-[2-(1H-indol-3-yl)ethyl]-7-(trifluoromethyl)-7,8-dihydro-6H-pyrimido[5,4-b][1,4]oxazin-4-amine] are 14.5 nM and 2.51 nM.
`Cc1ncc(-c2nc(NCCc3c[nH]c4ccccc34)c3c(n2)N(C2COC2)CCO3)s1` [Example 33, N-[2-(1H-indol-3-yl)ethyl]-2-(2-methylthiazol-5-yl)-8-(oxetan-3-yl)-6,7-dihydropyrimido[5,4-b][1,4]oxazin-4-amine]: the IC50 was 13.5 nM at AhR [1] and 14.1 nM at AhR [2].
For `Cc1ncc(-c2nc3c(c(NC4CCc5[nH]c6cccnc6c5C4)n2)OCCN3)s1` (centres unmarked) [Example 34, 2-(2-methylthiazol-5-yl)-N-(6,7,8,9-tetrahydro-5H-pyrido[3,2-b]indol-8-yl)-7,8-dihydro-6H-pyrimido[5,4-b][1,4]oxazin-4-amine], in that order: greater than 2000 nM and greater than 759 nM.
The corresponding values for `COC[C@@H]1COc2c(N[C@@H]3CCc4[nH]c5ccccc5c4C3)nc(-c3cnc(C)s3)nc2N1CCN(C)C` [Example 35, (7R)-8-[2-(dimethylamino)ethyl]-7-(methoxymethyl)-2-(2-methylthiazol-5-yl)-N-[(3R)-2,3,4,9-tetrahydro-1H-carbazol-3-yl]-6,7-dihydropyrimido[5,4-b][1,4]oxazin-4-amine] are 977 nM and greater than 1000 nM.
The corresponding values for `Cc1ncc(-c2nc(N[C@@H]3CCc4[nH]c5ccccc5c4C3)c3c(n2)N(CCN(C)C)[C@H](CO)CO3)s1` [Example 36, [(7R)-8-[2-(dimethylamino)ethyl]-2-(2-methylthiazol-5-yl)-4-[[(3R)-2,3,4,9-tetrahydro-1H-carbazol-3-yl]amino]-6,7-dihydropyrimido[5,4-b][1,4]oxazin-7-yl]methanol] are 1070 nM and greater than 1000 nM.
For the molecule `Cc1ncc(-c2nc(N[C@@H]3CCc4[nH]c5ccccc5c4C3)c3c(n2)N(CCO)CCO3)s1` [Example 37, 2-[2-(2-methylthiazol-5-yl)-4-[[(3R)-2,3,4,9-tetrahydro-1H-carbazol-3-yl]amino]-6,7-dihydropyrimido[5,4-b][1,4]oxazin-8-yl]ethanol], the figures for the IC50 at AhR [1] and at AhR [2] were 123 nM and 251 nM, respectively.
For `CN1CCOc2c(NCCc3c[nH]c4ccccc34)nc(-c3ccc[nH]c3=O)nc21` [Example 44, 3-(4-((2-(1H-indol-3-yl)ethyl)amino)-8-methyl-7,8-dihydro-6H-pyrimido[5,4-b][1,4]oxazin-2-yl)pyridin-2 (1H)-one], in that order: less than 1.55 nM and 10.2 nM.
The corresponding values for `COC[C@H]1COc2c(NCCc3c[nH]c4ccccc34)nc(-c3ccc[nH]c3=O)nc2N1` [Example 45, (S)-3-(4-((2-(1H-indol-3-yl)ethyl)amino)-7-(methoxymethyl)-7,8-dihydro-6H-pyrimido[5,4-b][1,4]oxazin-2-yl)pyridin-2(1H)-one] are less than 1.02 nM and 3.8 nM.
For `COC[C@@H]1COc2c(NCCc3c[nH]c4ccccc34)nc(-c3cncc(F)c3)nc2N1` [Example 46, (7R)-2-(5-fluoro-3-pyridyl)-N-[2-(1H-indol-3-yl)ethyl]-7-(methoxymethyl)-7,8-dihydro-6H-pyrimido[5,4-b][1,4]oxazin-4-amine], in that order: less than 1.35 nM and 0.759 nM.
Take `COC[C@@H]1COc2c(nc(-c3ccc[nH]c3=O)nc2OCCc2c[nH]c3ccccc23)N1` [Example 48, 3-[(7R)-4-[2-(1H-indol-3-yl)ethoxy]-7-(methoxymethyl)-7,8-dihydro-6H-pyrimido[5,4-b][1,4]oxazin-2-yl]-1H-pyridin-2-one]: the figures for the IC50 on AhR [1] and on AhR [2] were 1.62 nM and 4.37 nM, respectively.
For `COC[C@@H]1COc2c(NCCc3c[nH]c4ccccc34)nc(-c3cc(F)cc(F)c3)nc2N1` [Example 49, (7R)-2-(3,5-difluorophenyl)-N-[2-(1H-indol-3-yl)ethyl]-7-(methoxymethyl)-7,8-dihydro-6H-pyrimido[5,4-b][1,4]oxazin-4-amine], in that order: 6.92 nM and 3.39 nM.
The corresponding values for `Fc1cccc(-c2nc3c(c(NCCc4c[nH]c5ccccc45)n2)OCCN3)c1` [Example 50, 2-(3-fluorophenyl)-N-[2-(1H-indol-3-yl)ethyl]-7,8-dihydro-6H-pyrimido[5,4-b][1,4]oxazin-4-amine] are 22.4 nM and 5.5 nM.
For `COC[C@@H]1COc2c(nc(-c3cnc(C)s3)nc2N[C@@H]2CCc3[nH]c4ccccc4c3C2)N1` [Example 53, (7R)-7-(methoxymethyl)-2-(2-methylthiazol-5-yl)-N-[(3R)-2,3,4,9-tetrahydro-1H-carbazol-3-yl]-7,8-dihydro-6H-pyrimido[5,4-b][1,4]oxazin-4-amine], in that order: 759 nM and 81.3 nM.
Consider `Cc1ncc(-c2nc3c(c(N[C@@H]4CCc5[nH]c6ccccc6c5C4)n2)OC[C@@H](CO)N3)s1` [Example 54, [(7R)-2-(2-methylthiazol-5-yl)-4-[[(3R)-2,3,4,9-tetrahydro-1H-carbazol-3-yl]amino]-7,8-dihydro-6H-pyrimido[5,4-b][1,4]oxazin-7-yl]methanol], for which the IC50 was 501 nM at AhR [1] and 229 nM on AhR [2].
As for `COC[C@@H]1COc2c(NCCc3c[nH]c4ccccc34)nc(-c3ccc(F)cc3)nc2N1` [Example 56, (7R)-2-(4-fluorophenyl)-N-[2-(1H-indol-3-yl)ethyl]-7-(methoxymethyl)-7,8-dihydro-6H-pyrimido[5,4-b][1,4]oxazin-4-amine], the IC50 is 18.6 nM at AhR [1] and 12 nM on AhR [2].
